Data reported in patent publication US20220125853A1, “MATERIALS AND METHODS FOR ENHANCING BONE CELL DIFFERENTIATION” (Mayo Foundation for Medical Education and Research, priority 2016, published 2022).

Key:
[1] = tested on: adipose tissue-derived MSCs (AMSCs); experiment: Osteogenic differentiation of AMSCs (alkaline phosphatase activity, mineralization, osteogenic polypeptide expression); assay type: cell-based, human; conditions: throughout the cell culture time-course
Excerpt: (§1) The effect of CytoD on adipose tissue-derived MSCs (AMSCs) was investigated. AMSCs offer several advantages over other sources of MSCs, particularly in the ease of tissue harvest, isolation and expansion to generate sufficient cell numbers for therapy. Because AMSCs have limited osteogenic potential, it is necessary to design molecular strategies to improve their ability to attain a mature osteoblastic phenotype. […] Furthermore, CytoD decreased protein levels of Enhancer of Zeste Homolog 2 (EZH2), an epigenetic suppressor of osteogenic differentiation that mediates heterochromatinization of bone-related genes by trimethylation of histone 3 lysine 27 (H3K27me3).

AMSCs = experiment: RNA-seq analysis of AMSCs in response to CytoD; assay type: cell-based, human; conditions: 24 hour
Excerpt: as §1

BMSCs = experiment: RNA-seq analysis of BMSCs in response to CytoD; assay type: cell-based; conditions: 24 hour
[2] = tested on: Enhancer of Zeste Homolog 2 (EZH2); experiment: EZH2 protein levels and H3K27me3 marks in AMSCs; assay type: cell-based, human
Excerpt: as §1

skeletally mature mice = experiment: Bone anabolic effect of EZH2 inactivation in skeletally mature mice; assay type: in vivo
Excerpt: (§2) Bone stimulatory therapeutics that promote bone formation include bone morphogenetic proteins (e.g., BMP2) and intermittent treatment with parathyroid hormone (PTH) or PTH related protein, as well as antibody-suppression of WNT inhibitors (e.g., SOST). Furthermore, inactivation of EZH2, an epigenetic regulator with histone 3 lysine 27 (H3K27) methyltransferase activity, using a pharmacological inhibitor (GSK126) is bone anabolic in skeletally mature mice and osteo-protective in estrogen-depleted (ovariectomized) mice. These biological effects are directly related to the ability of EZH2 inhibition to promote osteogenic differentiation and inhibit adipogenic differentiation of mesenchymal stem cells.

[3] = tested on: estrogen-depleted (ovariectomized) mice; experiment: Osteo-protective effect of EZH2 inactivation in estrogen-depleted (ovariectomized) mice; assay type: in vivo
Excerpt: as §2

MC3T3 cells = experiment: mRNAseq gene expression in differentiating MC3T3 cells / preosteoblasts; assay type: cell-based
Method: The molecular mechanisms by which EZH2 inhibition promotes osteogenic differentiation were assessed. […] This quiescent state is conducive for expression of bone-related extracellular matrix proteins (e.g., collagens) that support matrix mineralization. […] Several Wnt ligands (e.g., Wnt10b, Wnt10a, and Wnt6) are robustly expressed in differentiating MC3T3 cells.

Row | Compound | alkaline phosphatase activity [1] | expression of osteogenic polypeptides RUNX2, ALP, OPG and TGFβ3 [1] | mineralization [1] | program of other osteogenic markers, including those linked to the BMP2-RUNX2 axis (e.g., SP7) (AMSCs) | program of other osteogenic markers, including those linked to the BMP2-RUNX2 axis (e.g., SP7) (BMSCs) | levels of H3K27me3 marks [2] | protein levels of EZH2 [2] | effect on bone (skeletally mature mice) | effect on bone [3] | expression of pro-osteogenic Wnt10b (MC3T3 cells; differentiating MC3T3 cells, EZH2 inhibition) | expression of the PTH receptor (Pthr1h) (MC3T3 cells; preosteoblasts)
1 | C=C1[C@@H](C)[C@H]2[C@H](Cc3ccccc3)NC(=O)[C@]23[C@H](OC(C)=O)/C=C/[C@@](C)(O)C(=O)[C@@H](C)C/C=C/[C@H]3[C@@H]1O [CytoD, cytochalasin D] | significant increases | significant increases | significant increases | significant upregulation | significant upregulation | decreased levels | decreased |  |  |  | 
2 | CC[C@H](C)n1cc(C)c2c(C(=O)NCc3c(C)cc(C)[nH]c3=O)cc(-c3ccc(N4CCNCC4)nc3)cc21 [GSK126] |  |  |  |  |  |  |  | bone anabolic | osteo-protective | greatly up-regulated | enhanced
